Source: patent US20230046018A1, “BIARYL COMPOUND AS PAN-RAF KINASE INHIBITOR” (MEDSHINE DISCOVERY INC., priority 2019, published 2023)
pIC50: −log10 of the molar value. Read-outs that look alike come from different tables or passages of the source.

Assays:
[1] = test system: ERK phosphorylation in Ca1u-6(Kras^Q61K); assay: Ca1u-6 (Kras^Q61K) ERK phosphorylation inhibition (HTRF); assay type: cell-based, human; settings: 1 hour with compound, read-out: Calu-6 ERK phosphorylation inhibitory activity IC50
Method: Experiments for Ca1u-6(Kras^Q61K) ERK Phosphorylation Inhibition
(§1) 1) cells were resuscitated, cultured to a logarithmic growth phase, then digested with trypsin and seeded in a 96-well plate, and the plate was incubated overnight in an incubator;
(§2) 2) serial gradients of compounds dissolved in DMSO were added to the 96-well plate, which was then put back into the incubator for 1 hour;
3) the cell plate was taken out; and the cells were incubated and lysed by adding cell lysates (containing 1% blocking peptide) for 30 minutes at room temperature;
(§3) 4) 16 μL of cell lysates per well was transferred to the HTRF plate, and then 4 μL of the mixed antibody solution formulated thereby was added;
(§4) 5) after overnight incubation, the plate was read on Envision; the fitted curves were obtained according to ratio (the ratio of Ex665/Ex615 fluorescence intensity); and EC50 was calculated with the four-parameter fitting formula, i.e., Y=Bottom+(Top−Bottom)/(1+10^((LogEC50−X)*Hill Slope)) on Graphpad.

HCT-116(Kras^G13D) = assay: HCT-116 (Kras^G13D) antiproliferative activity (CellTiter Glo); assay type: cell-based; settings: HCT-116 (Kras^G13D) cells, three days
Method: Experiments for HCT-116(Kras^G13D) Antiproliferative Activity
(1) cell medium: 89% Mc'Coy 5A, 10% fetal bovine serum and 1% penicillin-streptomycin;
(2) the original medium in the cell culture flask was removed; the cells were digested with trypsin and then counted; and the cell suspension was diluted with the medium to a cell density of 2.5×10^4 cells per milliliter required for plating;
(§5) (3) 100 μL of the medium was added to the outermost circle of wells of the cell plate; 80 μL of the cell suspension was added to other wells; and the plate was cultured overnight in a 37° C. incubator with 5% CO2.
the compounds were subjected to a gradient dilution and then supplemented; and the cell plate was put back into the incubator for three days.
(§6) adding CTG and reading the plate involve adding 20 μL of CellTiterGlo to each well of the cell plate, shaking the plate for 10 min in the dark, and reading the plate on Victor Nivo.

Ca1u-6 (Kras^Q61K) = Ca1u-6 (Kras^Q61K) antiproliferative activity (CellTiter Glo); assay type: cell-based, human; settings: Ca1u-6 (Kras^Q61K) cells, three days, read-out: Calu-6 anti-proliferative activity IC50
Method: Experiments for Ca1u-6 (Kras^Q61K) Antiproliferative Activity
(1) cell medium: 89% EMEM, 10% fetal bovine serum and 1% penicillin-streptomycin;
(2) the original medium in the cell culture flask was removed; the cells were digested with trypsin and then counted; and the cell suspension was diluted with the medium to a cell density of 3.75×10^4 cells per milliliter required for plating;
as §5
the compounds were subjected to a gradient dilution and then supplemented using Echo; and the cell plate was put back into the incubator for three days.
as §6

[2] = test system: ERK phosphorylation in HCT116(Kras^G13D); assay: HCT116 (Kras^G13D) ERK phosphorylation inhibition (HTRF); assay type: cell-based, human; settings: 1 hour with compound, read-out: HCT-116 ERK phosphorylation inhibitory activity IC50
Method: Experiments for HCT116(Kras^G13D) ERK Phosphorylation Inhibition
as §1, §2
3) the cell plate was taken out; the supernatant was removed; and the cells were incubated and lysed by adding cell lysates (containing 1% blocking peptide) for 30 minutes at room temperature;
as §3, §4

cRAF protein = biological target: T1, cRAF protein (Homo sapiens, UniProt P04049); assay: c-RAF enzyme inhibitory activity (ADP-Glo, MEK1 substrate); assay type: biochemical; settings: MEK1 and ATP substrate
T1 construct: purchased Creative BioMart RAF1-416H
Method: Experiments for c-RAF Enzyme Inhibitory Activity
the compounds to be tested and reference compounds were diluted to 100 μM with DMSO, and the compounds were further subjected to a 3-fold gradient dilution using Echo to obtain target plates with 11 concentration gradients.
1) buffer formulation: 50 mM Tris-HCl (pH 7.4), 3.5 mM MgCl2, 150 mM NaCl, 1 mM DTT, 0.02% Triton X-100, H2O;
7) after 1 hour, the plate was read on Envision.

[3] = In vivo pharmacokinetics in mice; settings: mouse, plasma, female CD-1 mice; for AUC: read-out: Curve area AUC
Description: Experiments for In Vivo Pharmacokinetics in Mice
2) Experimental animals: 4 female CD-1 mice, which were divided into 2 groups, 2 mice in each group;
3) Drug formulation: An appropriate amount of the drug was weighed and dissolved in an aqueous solution of solutol (5% by volume), DMSO (5% by volume) and PEG-300 (25% by volume) for injection administration. An appropriate amount of the drug was weighed and dispersed in a 5% solutol aqueous solution (80% by volume), and then PEG-400 (20% by volume) was added; the mixture was mixed well and used for intragastric administration. Solutol is polyethylene glycol-15-hydroxystearate.
The animals in the first group were administered the compound at a dose of 2 mg/kg at a concentration of 1 mg/mL by intravenous administration. Plasma samples were collected from the animals at 0.117, 0.333, 1, 2, 4, 7 and 24 hours after administration. The animals in the second group were administered the compound at a dose of 100 mg/kg at a concentration of 10 mg/mL by intragastric administration. Plasma samples were collected from the animals at 0.0833, 0.25, 0.5, 1, 2, 4, 6, 8 and 24 hours after administration. The drug concentration at each point was determined by the LC-MS/MS method, and kinetic parameters of the tested drug were as follows: […]

[4] = test system: human lung cancer Ca1u-6 subcutaneous xenograft tumor; assay: In vivo pharmacodynamics, human lung cancer Ca1u-6 subcutaneous xenograft tumor BALB/c nude mouse model; settings: 100 mg/kg PO QD × 21 days, Ca1u-6 xenograft, BALB/c nude mice
Method: When the cell saturation was 80% to 90%, and the number reached the requirement, the cells were collected, counted and inoculated.
Tumor diameter was measured twice a week with a vernier caliper.
TGI (%) reflected the tumor growth inhibition rate.

[5] = Homo sapiens, Calu-6, 1 h, Ca1u-6 (Kras^Q61K) cells
[6] = Homo sapiens, HCT-116, 1 h, HCT116 (Kras^G13D) cells
[7] = Homo sapiens, HCT-116, HCT116 (Kras^G13D) cells

T1 sequence (P04049 whole entry): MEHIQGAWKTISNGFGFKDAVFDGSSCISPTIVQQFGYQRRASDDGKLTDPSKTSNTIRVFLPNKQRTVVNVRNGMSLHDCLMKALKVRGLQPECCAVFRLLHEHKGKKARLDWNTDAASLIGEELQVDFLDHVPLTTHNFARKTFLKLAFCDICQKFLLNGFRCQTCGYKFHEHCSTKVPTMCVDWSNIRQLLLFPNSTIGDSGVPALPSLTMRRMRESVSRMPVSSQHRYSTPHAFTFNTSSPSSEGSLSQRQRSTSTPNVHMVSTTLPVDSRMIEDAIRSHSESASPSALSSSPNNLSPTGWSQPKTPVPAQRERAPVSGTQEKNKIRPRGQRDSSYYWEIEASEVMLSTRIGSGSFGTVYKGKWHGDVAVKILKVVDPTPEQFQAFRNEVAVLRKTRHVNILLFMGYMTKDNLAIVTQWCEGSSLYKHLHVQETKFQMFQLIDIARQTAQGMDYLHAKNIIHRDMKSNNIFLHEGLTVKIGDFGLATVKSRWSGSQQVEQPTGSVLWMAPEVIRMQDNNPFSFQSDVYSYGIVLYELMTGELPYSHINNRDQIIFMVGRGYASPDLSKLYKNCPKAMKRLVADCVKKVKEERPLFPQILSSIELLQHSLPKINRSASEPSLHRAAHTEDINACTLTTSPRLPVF

SMILES | pIC50 [1, 5] | pIC50 (HCT-116(Kras^G13D); Homo sapiens, 72 h) | pIC50 (Ca1u-6 (Kras^Q61K); Homo sapiens, Calu-6, 72 h) | pIC50 (cRAF protein) | further results
Cc1ccc(NC(=O)c2ccnc(C(F)(F)F)c2)cc1-c1cc(OCCO)nc(C23CCOCC2C3)c1 (single isomer, unassigned) [Compound 1A] | 6.66 | 6.22 | 5.92 | 8.60 | pIC50 [2, 6]: 6.85
Cc1ccc(NC(=O)c2ccnc(C(F)(F)F)c2)cc1-c1cc(OCCO)nc(C23CCOCC2C3)c1 (single isomer, unassigned) [Compound 1B] |  |  |  | 8.70 | pIC50 ([1]; Ca1u-6 (Kras^Q61K) cells): 6.60; pIC50 (HCT-116(Kras^G13D)): 6.22; pIC50 (Ca1u-6 (Kras^Q61K)): 6.02; pIC50 ([2]; HCT116 (Kras^G13D) cells): 6.66
Cc1ccc(NC(=O)c2ccnc(C(F)(F)F)c2)cc1-c1cc(N(C)CCO)nc(C23CCOCC2C3)c1 (stereo not drawn) [Compound 2] |  | 5.64 | 5.96 | 8.57 | pIC50 [2, 6]: 6.68
Cc1ccc(NC(=O)c2ccnc(C(F)(F)F)c2)cc1-c1cc(NCCO)nc(C23CCOCC2C3)c1 (stereo not drawn) [Compound 3] |  | 5.64 | 5.85 | 8.77 | pIC50 [2, 6]: 6.72
Cc1ccc(NC(=O)c2ccnc(C(F)F)c2)cc1-c1cc(OCCO)nc(C23CCOCC2C3)c1 (stereo not drawn) [Compound 5] | 6.77 | 5.59 | 5.34 | 9.00 | 
Cc1ccc(NC(=O)c2ccnc(C(C)(F)F)c2)cc1-c1cc(OCCO)nc(C23CCOCC2C3)c1 (stereo not drawn) [Compound 6] | 6.66 | 6.22 | 6.00 | 9.05 | 
Cc1ccc(NC(=O)c2ccnc(C(F)(F)F)c2)cc1-c1cc(SCCO)nc(C23CCOCC2C3)c1 (stereo not drawn) [Compound 7] |  |  |  | 8.60 | 
Cc1ccc(NC(=O)c2ccnc(C(F)(F)F)c2)cc1-c1cc(C23CCOCC2C3)cc(OCCO)n1 (stereo not drawn) [Compound 8] | 6.46 | 5.96 | 6.00 | 8.96 | 
Cc1ccc(NC(=O)c2ccnc(C(F)(F)F)c2)cc1-c1cc(OC[C@H](O)CO)nc(C23CCOCC2C3)c1 (stereo partly drawn) [Compound 9] | 6.74 | 6.10 | 5.19 | 8.92 | 
COC[C@@H](O)COc1cc(-c2cc(NC(=O)c3ccnc(C(F)(F)F)c3)ccc2C)cc(C23CCOCC2C3)n1 (stereo partly drawn) [Compound 10] |  | 5.28 | 5.15 | 8.60 | 
Cc1ccc(NC(=O)c2ccnc(C(F)(F)F)c2)cc1-c1cc(OCCO)nc(C23CCOCC2C3(F)F)c1 (stereo not drawn) [Compound 11] | 6.37 | 6.10 | 5.96 | 8.55 | 
Cc1ccc(NC(=O)c2ccnc(C(F)(F)F)c2)cc1-c1cc(N2CC(O)C2)nc(C23CCOCC2C3)c1 (stereo not drawn) [Compound 13] | 6.41 | 6.70 | 6.70 |  | 
Cc1ccc(NC(=O)c2ccnc(C(F)(F)F)c2)cc1-c1cc(OCCO)nc(C23CCOCC2(C#N)C3)c1 (stereo not drawn) [Compound 14] | 6.48 | 6.40 | 5.46 |  | 
Cc1ccc(NC(=O)c2ccnc(C(F)(F)F)c2)cc1-c1cc(OCC(C)(C)O)nc(C23CCOCC2C3)c1 (stereo not drawn) [Compound 15] | 6.48 | 6.05 | 5.33 |  | 
Cc1ccc(NC(=O)c2ccnc(C(F)(F)F)c2)cc1-c1cc(OCCO)nc([C@]23COC[C@H]2C3)c1 [Compound 16B] |  | 5.96 | 6.22 |  | pIC50 ([1]; Homo sapiens, Calu-6, Ca1u-6 (Kras^Q61K) cells): 6.31; pIC50 [2, 7]: 6.74; bioavailability ([3]; oral, intragastric 100 mg/kg versus intravenous 2 mg/kg, read-out: Bioavailability F): 131%; Tmax ([3]; po, intragastric administration 100 mg/kg, read-out: Maximum concentration time Tmax): 1 h; clearance ([3]; intravenous administration 2 mg/kg, read-out: Clearance rate Cl): 25.8 mL/min/kg; Vd ([3]; intravenous administration 2 mg/kg, read-out: Distribution volume Vd): 2.75 L/kg; half-life ([3]; intravenous administration 2 mg/kg, read-out: Half-life T1/2 (converted)): 1.43 h; AUC ([3]; po, intragastric administration 100 mg/kg): 178 µM·h; Cmax ([3]; po, intragastric administration 100 mg/kg, read-out: Maximum concentration Cmax): 25 µM; AUC ([3]; intravenous administration 2 mg/kg): 2.61 µM·h; C0 ([3]; intravenous administration 2 mg/kg, read-out: Initial concentration C0): 2.01 µM; relative tumor proliferation rate T/C [4]: 11.4%; tumor growth inhibition rate TGI [4]: 99.1%
Cc1ccc(NC(=O)c2ccnc(C(F)(F)F)c2)cc1-c1cc(OCCO)nc(C23COCC2C3)c1 (stereo not drawn) [Compound 16] |  | 5.66 | 5.89 |  | pIC50 [2, 7]: 6.80
